Reference: US20240150321A1, “PYRAZOLYLSULFONAMIDE COMPOUNDS AND THEIR USE IN THERAPY” (HOTSPOT THERAPEUTICS, INC., priority 2022, published 2024)
Like-named read-outs stand apart in the source and are kept apart here.

What was measured:
[1] = tested on: NF-kB reporter in Jurkat cells; assay: NF-kB reporter assay in Jurkat cells stimulated with aCD3/aCD28/PMA; assay type: cell-based; settings: read-out: NF-kB Reporter Assay IC50
Method in brief: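 Jurkat cells (25,000/well, serum-free RPMI) were pre-incubated 1 h at 37° C with serially diluted compound, then stimulated 4 h with aCD3/aCD28/PMA at final […]. NF-kB reporter activity was read by One-Glo luminescence; IC50 values reported.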

Avi-tagged FL MALT-1 = Avi-tagged FL MALT-1 (Homo sapiens (Human), UniProt Q9UDY8); assay: MALT-1 Fluorogenic Peptide Cleavage Assay (MALT1 inhibition assay); assay type: biochemical; settings: Ac-LRSR-AMC peptide substrate, 30 min pre-incubation, 90 min reaction at room temperature
Method in brief: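 Full-length Avi-tagged human MALT-1 (40 nM working stock) pre-incubated 30 min at RT with compound in 25 mM HEPES pH 6.89, 660 mM sodium citrate, 1 mM TCEP, […], 0.05% CHAPS, 2% DMSO. Ac-LRSR-AMC added at Km (50 μM working stock) or 10×Km (280 μM working stock); 90 min at RT, AMC fluorescence (ex 342/em 441 nm), IC50 from % inhibition curves.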

[2] = Homo sapiens, Jurkat cells, 1 hr compound pre-incubation, aCD3/aCD28/PMA stimulation 4 hr, One-Glo readout
[3] = Jurkat cells, 1 hr compound pre-incubation, aCD3/aCD28/PMA stimulation 4 hr, One-Glo readout

Chain of Avi-tagged FL MALT-1 (Q9UDY8 whole entry): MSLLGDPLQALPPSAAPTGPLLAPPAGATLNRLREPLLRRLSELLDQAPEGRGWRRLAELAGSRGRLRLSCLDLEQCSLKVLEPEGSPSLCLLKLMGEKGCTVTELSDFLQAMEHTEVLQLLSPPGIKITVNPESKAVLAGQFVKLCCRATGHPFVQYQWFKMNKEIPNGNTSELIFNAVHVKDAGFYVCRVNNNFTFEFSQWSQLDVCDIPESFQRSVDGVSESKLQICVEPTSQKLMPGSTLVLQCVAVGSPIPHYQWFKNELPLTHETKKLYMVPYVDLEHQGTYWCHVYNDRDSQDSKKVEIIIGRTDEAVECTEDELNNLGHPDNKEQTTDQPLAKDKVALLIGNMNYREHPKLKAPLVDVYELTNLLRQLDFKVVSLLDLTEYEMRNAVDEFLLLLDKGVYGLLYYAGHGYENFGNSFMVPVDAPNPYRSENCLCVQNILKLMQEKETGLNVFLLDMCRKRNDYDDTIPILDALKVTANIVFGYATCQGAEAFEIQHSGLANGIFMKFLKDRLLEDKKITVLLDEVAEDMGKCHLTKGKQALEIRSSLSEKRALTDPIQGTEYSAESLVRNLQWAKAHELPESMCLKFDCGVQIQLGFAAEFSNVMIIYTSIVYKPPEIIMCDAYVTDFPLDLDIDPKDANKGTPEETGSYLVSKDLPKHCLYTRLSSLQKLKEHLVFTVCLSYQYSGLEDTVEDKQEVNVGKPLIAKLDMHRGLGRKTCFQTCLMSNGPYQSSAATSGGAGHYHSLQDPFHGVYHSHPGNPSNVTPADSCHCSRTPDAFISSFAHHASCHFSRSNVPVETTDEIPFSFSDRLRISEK

| SMILES | IC50 [1, 2] | IC50 (Avi-tagged FL MALT-1) | IC50 [1, 3] | IC50 ([1]; Homo sapiens, Jurkat) |
| --- | --- | --- | --- | --- |
| CC1CN(c2ccnc(-n3cc(S(=O)(=O)Nc4cccc5cnn(C)c45)cn3)c2)C1 [Compound I-356, N-(1-methyl-1H-indazol-7-yl)-1-(4-(3-methylazetidin-1-yl)pyridin-2-yl)-1H-pyrazole-4-sulfonamide] | < 400 nM | > 2500 nM | – | – |
| C=Cn1cc2cccc(NS(=O)(=O)c3cnn(-c4cc(C(F)(F)F)ccn4)c3)c2n1 [Compound I-357, 1-(4-(trifluoromethyl)pyridin-2-yl)-N-(2-vinyl-2H-indazol-7-yl)-1H-pyrazole-4-sulfonamide] | > 2500 nM | > 2500 nM | – | – |
| Cn1ncc2cccc(NS(=O)(=O)c3cnn(-c4cc(C5(O)CC(F)C5)ccn4)c3)c21 (stereo not drawn) [Compound I-358] | < 400 nM | > 2500 nM | – | – |
| Cn1ncc2cccc(NS(=O)(=O)c3cnn(-c4cc(C5(O)CC(F)(F)C5)ccn4)c3)c21 [Compound I-359] | < 400 nM | > 2500 nM | – | – |
| COC1(c2ccnc(-n3cc(S(=O)(=O)Nc4cccc5cnn(C)c45)cn3)c2)CC(C)C1 (stereo not drawn) [Compound I-362, 1-(4-(1-methoxy-3-methylcyclobutyl)pyridin-2-yl)-N-(1-methyl-1H-indazol-7-yl)-1H-pyrazole-4-sulfonamide] | < 400 nM | > 2500 nM | – | – |
| COC1(c2ccnc(-n3cc(S(=O)(=O)Nc4cccc5cnn(C)c45)cn3)c2)CC(C)C1 (stereo not drawn) [Compound I-363, 1-(4-(1-methoxy-3-methylcyclobutyl)pyridin-2-yl)-N-(1-methyl-1H-indazol-7-yl)-1H-pyrazole-4-sulfonamide] | – | > 2500 nM | < 400 nM | – |
| Cn1ncc2cccc(NS(=O)(=O)c3cnn(-c4cc(C5(F)CC(F)C5)ccn4)c3)c21 (stereo not drawn) [Compound I-366, 1-(4-(1,3-difluorocyclobutyl)pyridin-2-yl)-N-(1-methyl-1H-indazol-7-yl)-1H-pyrazole-4-sulfonamide] | – | > 2500 nM | < 400 nM | – |
| Cn1ncc2cccc(NS(=O)(=O)c3cnn(-c4cc(N5CC(C)(C)C5)ccn4)c3)c21 [Compound I-367] | < 400 nM | > 2500 nM | – | – |
| Cn1ncc2cccc(NS(=O)(=O)c3cnn(-c4cc(N5CC6(CC6)C5)ccn4)c3)c21 [Compound I-368, 1-(4-{5-azaspiro[2.3]hexan-5-yl}pyridin-2-yl)-N-(1-methylindazol-7-yl)pyrazole-4-sulfonamide] | < 400 nM | > 2500 nM | – | – |
| COc1ccc2cnn(C)c2c1NS(=O)(=O)c1cnn(-c2cc(N3CC(C)C3)ccn2)c1 [Compound I-369] | < 400 nM | > 2500 nM | – | – |
| COc1ccc2cnn(C)c2c1NS(=O)(=O)c1cnn(-c2cc(N3CC(C)(C)C3)ccn2)c1 [Compound I-370, 1-[4-(3,3-dimethylazetidin-1-yl)pyridin-2-yl]-N-(6-methoxy-1-methylindazol-7-yl)pyrazole-4-sulfonamide] | < 400 nM | > 2500 nM | – | – |
| COc1ccc2cnn(C)c2c1NS(=O)(=O)c1cnn(-c2cc(N3CC4(CC4)C3)ccn2)c1 [Compound I-371, 1-(4-(5-azaspiro[2.3]hexan-5-yl)pyridin-2-yl)-N-(6-methoxy-1-methyl-1H-indazol-7-yl)-1H-pyrazole-4-sulfonamide] | < 400 nM | > 2500 nM | – | – |
| COc1ccc2cnn(C)c2c1NS(=O)(=O)c1cnn(-c2cc(N3CCCCC3)ccn2)c1 [Compound I-372] | < 400 nM | 1000 to 2500 nM | – | – |
| COc1ccc2cnn(C)c2c1NS(=O)(=O)c1cnn(-c2cc(N3CCC3)ccn2)c1 [Compound I-373, 1-(4-(azetidin-1-yl)pyridin-2-yl)-N-(6-methoxy-1-methyl-1H-indazol-7-yl)-1H-pyrazole-4-sulfonamide] | – | ≤ 400 nM | – | < 400 nM |
| Cn1ncc2cccc(NS(=O)(=O)c3cnn(-c4cc(C5CC(O)C5)ccn4)c3)c21 (stereo not drawn) [Compound I-374, 1-(4-(3-hydroxycyclobutyl)pyridin-2-yl)-N-(1-methyl-1H-indazol-7-yl)-1H-pyrazole-4-sulfonamide] | < 400 nM | > 2500 nM | – | – |
| Cn1ncc2cccc(NS(=O)(=O)c3cnn(-c4cc(N5CC6CC6C5)ccn4)c3)c21 (stereo not drawn) [Compound I-375, 1-(4-(3-Azabicyclo[3.1.0]Hexan-3-yl)Pyridin-2-yl)-N-(1-Methyl-1H-Indazol-7-yl)-1H-Pyrazole-4-Sulfonamide] | < 400 nM | > 2500 nM | – | – |
| Cn1ncc2cccc(NS(=O)(=O)c3cnn(-c4cc(C5(F)CC(F)C5)ccn4)c3)c21 (stereo not drawn) [Compound I-376, 1-(4-(1,3-difluorocyclobutyl)pyridin-2-yl)-N-(1-methyl-1H-indazol-7-yl)-1H-pyrazole-4-sulfonamide] | – | > 2500 nM | < 400 nM | – |

| SMILES | IC50 [1, 2] | IC50 (Avi-tagged FL MALT-1) | IC50 [1, 3] | IC50 ([1]; Homo sapiens, Jurkat) |
| --- | --- | --- | --- | --- |
| O=S(=O)(c1cnn(-c2cc(C(F)(F)F)ccn2)c1)N1CCCn2ncc3cccc1c32 [Compound I-379, 1-((1-(4-(trifluoromethyl)pyridin-2-yl)-1H-pyrazol-4-yl)sulfonyl)-1,2,3,4-tetrahydro-[1,4]diazepino[3,2,1-hi]indazole] | – | > 2500 nM | – | > 2500 nM |
| [2H]c1nn(C([2H])([2H])[2H])c2c(NS(=O)(=O)c3cnn(-c4cc(C(C)(F)F)ccn4)c3)cccc12 [Compound I-380, 1-(4-(1,1-difluoroethyl)pyridin-2-yl)-N-(1-(methyl-d3)-1H-indazol-7-yl-3-d)-1H-pyrazole-4-sulfonamide] | < 400 nM | 1000 to 2500 nM | – | – |
| COc1ccc2cnn(C)c2c1NS(=O)(=O)c1cnn(-c2cc(N3CCCC3)ccn2)c1 [Compound I-381, N-(6-methoxy-1-methylindazol-7-yl)-1-[4-(pyrrolidin-1-yl)pyridin-2-yl]pyrazole-4-sulfonamide] | < 400 nM | 400 to 1000 nM | – | – |
| Cn1ncc2cccc(NS(=O)(=O)c3cnn(-c4cc(C(C)(C)C#N)ccn4)c3)c21 [Compound I-382, 1-(4-(2-cyanopropan-2-yl)pyridin-2-yl)-N-(1-methyl-1H-indazol-7-yl)-1H-pyrazole-4-sulfonamide] | < 400 nM | > 2500 nM | – | – |
| Cn1ncc2cccc(NS(=O)(=O)c3cnn(-c4cc(C5(F)CC(F)(F)C5)ccn4)c3)c21 [Compound I-383, N-(1-methylindazol-7-yl)-1-[4-(1,3,3-trifluorocyclobutyl)pyridin-2-yl]pyrazole-4-sulfonamide] | < 400 nM | > 2500 nM | – | – |
| COc1ccc2cnn(C)c2c1NS(=O)(=O)c1cnn(-c2cc(N3CCOCC3)ccn2)c1 [Compound I-384] | < 400 nM | > 2500 nM | – | – |
| COc1ncc2cnn(C)c2c1NS(=O)(=O)c1cnn(-c2cc(N3CC(C)(C)C3)ccn2)c1 [Compound I-385] | < 400 nM | > 2500 nM | – | – |
| COc1ncc2cnn(C)c2c1NS(=O)(=O)c1cnn(-c2cc(N3CC4(CC4)C3)ccn2)c1 [Compound I-386, 1-(4-(5-azaspiro[2.3]hexan-5-yl)pyridin-2-yl)-N-(6-methoxy-1-methyl-1H-pyrazolo[4,3-c]pyridin-7-yl)-1H-pyrazole-4-sulfonamide] | < 400 nM | > 2500 nM | – | – |
| COc1ncc2cnn(C)c2c1NS(=O)(=O)c1cnn(-c2cc(N3CCCCC3)ccn2)c1 [Compound I-387, N-(6-methoxy-1-methyl-1H-pyrazolo[4,3-c]pyridin-7-yl)-1-(4-(piperidin-1-yl)pyridin-2-yl)-1H-pyrazole-4-sulfonamide] | < 400 nM | > 2500 nM | – | – |
| COc1ncc2cnn(C)c2c1NS(=O)(=O)c1cnn(-c2cc(N3CCC3)ccn2)c1 [Compound I-388, 1-[4-(azetidin-1-yl)pyridin-2-yl]-N-{6-methoxy-1-methylpyrazolo[4,3-c]pyridin-7-yl}pyrazole-4-sulfonamide] | < 400 nM | 400 to 1000 nM | – | – |
| Cn1ncc2cccc(NS(=O)(=O)c3cnn(-c4cc(N5CC6CC(C6)C5)ccn4)c3)c21 [Compound I-389, 1-(4-(3-Azabicyclo[3.1.1]Heptan-3-yl)Pyridin-2-yl)-N-(1-Methyl-1H-Indazol-7-yl)-1H-Pyrazole-4-Sulfonamide] | < 400 nM | > 2500 nM | – | – |
| CC1CCN(c2ccnc(-n3cc(S(=O)(=O)Nc4cccc5cnn(C)c45)cn3)c2)CC1 [Compound I-390, N-(1-methylindazol-7-yl)-1-[4-(4-methylpiperidin-1-yl)pyridin-2-yl]pyrazole-4-sulfonamide] | < 400 nM | > 2500 nM | – | – |
| Cn1ncc2cccc(NS(=O)(=O)c3cnn(-c4cc(N5CCCCCC5)ccn4)c3)c21 [Compound I-391, 1-[4-(azepan-1-yl)pyridin-2-yl]-N-(1-methylindazol-7-yl)pyrazole-4-sulfonamide] | < 400 nM | > 2500 nM | – | – |
| COc1ccc2cnn(C)c2c1NS(=O)(=O)c1cnn(-c2cc(N3CCCCCC3)ccn2)c1 [Compound I-392] | < 400 nM | > 2500 nM | – | – |
| O=S(=O)(c1cnn(-c2cc(C(F)(F)F)ccn2)c1)N1CCCc2ccc3cn[nH]c3c21 [Compound I-393, 9-((1-(4-(trifluoromethyl)pyridin-2-yl)-1H-pyrazol-4-yl)sulfonyl)-6,7,8,9-tetrahydro-1H-pyrazolo[4,3-h]quinoline] | > 2500 nM | > 2500 nM | – | – |
| CC1CC(F)(c2ccnc(-n3cc(S(=O)(=O)Nc4cccc5cnn(C)c45)cn3)c2)C1 (stereo not drawn) [Compound I-394] | < 400 nM | > 2500 nM | – | – |
